Measured values taken from patent US20040063660A1, “Diasteriomers of S-adenosyl-l-methionine and uses thereof” (priority 2000, published 2004).

Assays:
[1] = tested on: nucleolar 2-0-methyltransferase; settings: vs (R,S) diasteriomer; cited from earlier work
[2] = tested on: S-adenosyl-l-methionine-dependent methyltransferases; settings: cited from earlier work
methyltransferases = settings: other methyltransferases; cited from earlier work
[3] = suggested; control of morning sickness during pregnancy; cited from earlier work
brain oxidative status = settings: chronically administered, rats; cited from earlier work
[4] = tested on: tumor necrosis factor alpha; settings: cited from earlier work
migraines = settings: human, in vivo; cited from earlier work
human erythrocytes = settings: incubated in vitro with human erythrocytes; cited from earlier work
muscarinic receptors = settings: rats treated chronically; cited from earlier work
[5] = tested on: total parenteral nutrition-induced cholestasis; settings: rat; cited from earlier work
[6] = tested on: alcoholic liver cirrhosis; settings: oral, vs placebo treated group; cited from earlier work
primary fibromyalgia = settings: oral, short-term trial; cited from earlier work
memory = settings: treated vs age matched untreated animals, old and young; cited from earlier work
Alzheimer's disease = settings: preliminary study; cited from earlier work
intrahepatic cholestasis = settings: oral, intrahepatic cholestasis patients; cited from earlier work
[7] = tested on: peripheral occlusive arterial disease; settings: patients with peripheral occlusive arterial disease; cited from earlier work
liver glutathione = settings: oral, patients with and without liver disease; cited from earlier work
beta-adrenergic = settings: L-form vs D-enantiomer; cited from earlier work
[8] = tested on: patients with major depressive episode (DSM-III); experiment: open, non-blind study of depression, Hamilton Rating Scale for Depression; format: in vivo, human; settings: 400 mg twice daily, 14 days
Protocol: (S,S)-S-adenosyl-l-methionine p-toluene sulfonate 400 mg was administered twice daily in an open, non-blind study of 10 volunteers who gave informed consent. All patients had normal results on pre-study medical examinations, including laboratory examinations. Patients received 400 mg of (S,S)-S-adenosyl-l-methionine p-toluene sulfonate in an enteric-coated tablet form twice daily for 14 days or until remission of depression symptoms. The 10 patients satisfied the DSM-III criteria for a major depressive episode. Patients' symptoms were monitored daily using the Hamilton Rating Scale for Depression. 9 patients completed the study. […] One patient had no change at all.

[9] = enteric-coated tablet, 9 patients completed

## C[S@@+](CC[C@H](N)C(=O)O)C[C@H]1O[C@@H](n2cnc3c(N)ncnc32)[C@H](O)[C@@H]1O [(S,S)-S-adenosyl-l-methionine]
[1]
  tightness of enzyme binding relative to (R,S)-S-adenosyl-l-methionine: 10 fold

## C[S@@+](CC[C@@H](N)C(=O)O)C[C@H]1O[C@@H](n2cnc3c(N)ncnc32)[C@H](O)[C@@H]1O [(R,S)-S-adenosyl-l-methionine]
[2]
  inhibition of enzyme-catalyzed transmethylation reactions: potent inhibitor
methyltransferases
  binding relative to (S,S)-S-adenosyl-l-methionine: to the same extent

## O=C1CCC(N2C(=O)c3ccccc3C2=O)C(=O)N1 (single isomer, unassigned) [L-enantiomer, thalidomide]
[3]
  safety and effect of thalidomide enantiomer in pregnancy: potent teratogen

## C[S+](CC[C@H](N)C(=O)[O-])C[C@H]1O[C@@H](n2cnc3c(N)ncnc32)[C@H](O)[C@@H]1O (stereo partly drawn) [S-adenosyl-l-methionine]
Brain oxidative status
  oxidative status in the brain: enhancing anti-oxidative defenses
[4]
  amount of tumor necrosis factor alpha secreted by cells: decrease the amount
  damage caused by tumor necrosis factor alpha: attenuates the damage
migraines
  benefit in migraines: found to be of benefit
Human erythrocytes
  ATP within the erythrocyte: increases ATP within the cell
Muscarinic receptors
  number of muscarinic receptors in the brain: increase the number of muscarinic receptors
[5]
  cholestasis resulting from total parenteral nutrition: able to prevent cholestasis
[6]
  overall mortality and/or progression to liver transplant: 12%
Primary fibromyalgia
  improvement in primary fibromyalgia: significant improvement
memory
  performance in eight arm radical maze test versus untreated animals: out-perform
Alzheimer's disease
  cognitive effect in patients with Alzheimer's disease: cognitive improvement
Intrahepatic cholestasis
  pruritus and biochemical markers of cholestasis: improvements in both the pruritus as well as the biochemical markers of cholestasis
[7]
  blood viscosity: reduce blood viscosity
Liver glutathione
  liver glutathione levels: increases in liver glutathione levels

## CC(C)NCC(O)COc1cccc2ccccc12 (centres unmarked) [propranolol]
beta-adrenergic
  potency relative to the D-enantiomer: 100 times

## O=C1CCC(N2C(=O)c3ccccc3C2=O)C(=O)N1 (single isomer, unassigned) [D-enantiomer of thalidomide, thalidomide]
[3]
  safety and effect of thalidomide enantiomer in pregnancy: safe and effective sedative

## C[S@@+](CC[C@H](N)C(=O)O)C[C@H]1O[C@@H](n2cnc3c(N)ncnc32)[C@H](O)[C@@H]1O.Cc1ccc(S(=O)(=O)[O-])cc1 [(S,S)-S-adenosyl-l-methionine p-toluene sulfonate]
[8]
  side effects (reported, laboratory or physical examination): No side effects were noted or reported
[8]; [9]
  patients who completed the trial and improved (Hamilton Rating Scale for Depression): Eight of the nine
  patients with no change: One
